Results reported in patent US20040014212A1, “Preparation and xenotransplantation or porcine islets” (priority 2000, published 2004).

How the values were obtained:
porcine islets [1] = assay: Static glucose stimulation (SGS): insulin secretion of cultured porcine islets; type: cell-based; conditions: for effect of exposure beyond 24 hrs on insulin production in response to glucose: post isolation
porcine islets [2] = assay: as above; type: cell-based
Source text: Static glucose stimulation (SGS) is used to assess in vitro function of the porcine islets by exposing them to low and high concentrations of glucose and theophylline. Determination of the in vitro insulin secretory capacity is undertaken on both free islets (after 3 days in culture) and after their subsequent encapsulation or confinement.
Keep the cells 3 days in culture before Static Glucose Stimulation (SGS). SGS involves exposure of the cells to low and high concentration of glucose to check insulin production. Using 0.1 ug/ml concentration add IGF1 and GPE to two plates 24 hours before SGS (day 2 after isolation)

[3] = Incubated 24 hrs with 1.0 ug/ml IgF-1

Row | Molecule | increase in insulin secretion in response to glucose challenge (porcine islets [1]; Lidocaine during digestion, after 3 days in culture) [fold] | Insulin secretion in response to 19.4 mM Glucose + 10 mM Theophyline After 3 days culture Post isolation (porcine islets [1]; islets from Collagenase digestion, with or without 1 mM Lidocaine) [uU/hr/100 IEQ] | persistence of increased insulin production post exposure (porcine islets [1]) [days] | Insulin secretion In response to 19.4 mM Glucose + 10 mM Theophyline, increase Compared to control (porcine islets [1]; 3 days post IgF-1 Exposure) | Insulin secretion In response to 19.4 mM Glucose + 10 mM Theophyline, increase Compared to control (porcine islets [1]; 14 days post IgF-1 Exposure) | Insulin secretion In response to 19.4 mM Glucose + 10 mM Theophyline 7 days post isolation (porcine islets [1]; Incubated 7 days with 0.1 ug/ml IgF-1) [uU/hr/100 IEQ] | effect of increasing the concentration in culture on insulin response (porcine islets [1]; above the sufficient concentration) | effect of exposure beyond 24 hrs on insulin production in response to glucose (porcine islets [1]) | effect of withdrawal of Nicotinamide from the culture media on islet insulin production (porcine islets [2]) | concentration in culture sufficient to produce optimal insulin secretion during glucose challenge (porcine islets [2]; IgF-1 in culture) [µg/mL] | Insulin secretion In response to 19.4 mM Glucose + 10 mM Theophyline 7 days post isolation (porcine islets [2]; [3]) [uU/hr/100 IEQ] | Insulin secretion In response to 19.4 mM Glucose + 10 mM Theophyline After 3 days (porcine islets [2]; [3]) [uU/hr/100 IEQ] | Insulin secretion In response to 19.4 mM Glucose + 10 mM Theophyline After 3 days culture Post isolation (porcine islets [2]; Incubated 3 days With 0.1 ug/ml IgF-1 Without Nicotinamide) [uU/hr/100 IEQ] | increase of insulin response to glucose (porcine islets [2]; porcine islets in culture exposed to IgF-1) [fold] | Insulin secretion In response to 19.4 mM Glucose + 10 mM Theophyline After 3 days culture Post isolation (porcine islets [1]; Incubated 24 hrs With 0.1 ug/ml IgF-2 day 1, second sub-table) [uU/hr/100 IEQ] | Insulin secretion In response to 19.4 mM Glucose + 10 mM Theophyline After 3 days culture Post isolation (porcine islets [1]; Incubated 7 days with 0.1 ug/ml IgF-2) [uU/hr/100 IEQ] | effect on insulin production of porcine islet cells (porcine islets [2]; 0.1 μg/ml during culturing, initial exposure of 24 hrs)
1 | CCN(CC)CC(=O)Nc1c(C)cccc1C [Lidocaine, reference compound] | 3 | 163.8 | – | – | – | – | – | – | – | – | – | – | – | – | – | – | –
2 | IgF-1: Human Insulin-like Growth Factor I, a potent mitogenic growth factor | – | – | ≥ 14 | 1.5-fold increase | 1.3-fold increase | 58 | No further benefit | no increased benefit | eliminated the benefit of IgF-1 | 0.1 | 57.5 | 56.8 | 47.6 | ≤ 3 | – | – | –
3 | IgF-2: insulin-like growth factor II | – | – | ≤ 3 | – | – | – | – | failed to increase | – | – | – | – | – | – | 32 | 38.4 | appeared to increase
